Key:
[1] = Pharmacokinetic study of transdermal APAP in rats; type: in vivo, rats (Sprague-Dawley); conditions: 100 mg APAP enhancer-containing transdermal system vs regular 100 mg patch, n=6 per group (FIG. 3)
Method: Methodology: Anesthetized (15 mg/kg pentobarbital sodium i.p.) rats (Sprague-Dawley, 500-600 g), were placed on their back, the abdominal hair was trimmed off, and the skin was washed gently with distilled water. Anesthesia was maintained with 0.1 ml pentobarbital (15 mg/ml) along the experiment. […] Blood samples were taken from the tail vein into heparanized tubes at t=0, 1, 2, 3, 4, 5, 7 and 9 hours from the time of application.
After centrifugation, plasma were analyzed for APAP by EMIT kit (Serum Tox EIA Assay, Diagnostic Reagents, Inc.).

[2] = cited from earlier work
[3] = single application of hydrogel disc system to skin; neonates with apnea; cited from earlier work
[4] = male, CD1 hairless, mouse, 24 h, pH 7.4

## CC(=O)Nc1ccc(O)cc1 [APAP, Acetaminophen]
[1]
  systemic penetration (plasma APAP): significant increase in penetration
[2]; in vivo
  Volume of distribution: 0.95 L/kg
  binding to plasma proteins: 20%
  effective plasma concentrations: 10 to 20 µg/mL
[2]; similar in children and adults
  plasma elimination half life: about 2 hours
[2]; therapeutic doses
  drug recovered in the urine: 90-100%
  recovered in urine conjugated with cysteine: about 2%
  recovered in urine conjugated with glucuronic acid: about 60%
  recovered in urine conjugated with sulfuric acid: about 35%
  unchanged APAP in urine: about 2%

## Cn1c(=O)c2[nH]cnc2n(C)c1=O [theophylline]
[3]
  duration of therapeutic concentrations: up to 3 days

## O=C(O)Cc1ccccc1Nc1c(Cl)cccc1Cl [diclofenac]
[4]
  higher dose of diclofenac delivered vs regular application of Voltaren Emulgel: 12 fold
